Measurements as given in patent US4965259A, “Dioxazocine derivatives compositions and methods containing them having antidepressive, spasmolytic, anticonvulsive, and antiarrhythmic properties” (EGIS Gyogyszergyar, priority 1987, dated 1990).
Where “and” joins values, the source holds several entries; their conditions need not be identical. Equal values may be shown once. Where a name gives a salt, the structure may show the parent alone. Read-outs that look alike come from different tables or passages of the source.

Tests used:
[1] = Acute toxicity on white mice (LD50 p.o.); set-up: species or system strain CFLP, both sexes; conditions: mouse, in vivo, po
Method: Acute toxicity of the compounds was tested on white mice of both sexes from the strain CFLP in groups consisting of 10 animals weighing 18 to 22 g. The compounds to be tested were administered perorally in a volume of 20 ml/kg. […] The animals could consume tap water and standard mouse feed ad libitum. The LD50 -values were determined according to Litchfield and Wilcoxon [J. Pharmacol. Exp. Ther., 96, 99 (1949)].

[2] = tested on: tremor induced by tremorine; test: Inhibition of tremor induced by tremorine on mice; assay type: in vivo; conditions: for ED50: Mus musculus, po, 1 h before tremorine 20 mg/kg i.p., evaluated 45 minutes after tremorine; for Therapeutical index LD50/ED50: tremorine tremor, p.o.
Method: The tests were carried out according to Everett [Science, 124, 79 (1956)]. Tremor was induced by tremorine [1,1'-(2-butynylene)-dipyrrolidine] administered intraperitoneally at a dosage of 20 mg/kg. The compounds to be examined were given perorally to the animals one hour prior to the administration of tremorine, and the tremor developed was evaluated 45 minutes after the administration of tremorine.

[3] = tested on: sleep induced with hexobarbital; test: Narcosis potentiating activity (sleep induced with hexobarbital on mice); assay type: in vivo; conditions: for ED50: Mus musculus, po, 1 h before hexobarbital 40 mg/kg i.v., positive = sleep exceeding control mean by factor 2,5; for Therapeutical index LD50/ED50: p.o.
Method: Groups consisting of 6 mice each were treated with the compound to be examined, perorally. After one hour, hexobarbital [5-(1-cyclohexenyl)-1,5-dimethylbarbituric acid] was injected, intravenously, at a dosage of 40 mg/kg. The control group was treated only with hexobarbital to provoke sleep. The duration of sleep was recorded. If the duration of sleep of an animal exceeded that of the mean value of the control group by a factor of 2,5, it was considered as a positive reaction. From the data referring to the animals indicating a positive reaction, the ED50 -value was calculated. From the values of LD50 and ED50, the therapeutical index was determined for each compound tested.

[4] = tested on: tonic-extensoric spasms on the hind limbs (pentetrazole); test: Spasmolytic action on mice (pentetrazole-induced tonic-extensoric spasms); assay type: in vivo, white mice; conditions: for ED50: Mus musculus, po; for Therapeutical index LD50/ED50: pentetrazole spasm
Method: The tests were carried out according to the method of Banzinger and Hane which was adapted to white mice [Arch. Int. Pharmacolyn., 167, 245-249 (1959)]. The test animals were treated perorally with the compounds to be tested. One hour after the administration pentetrazole (6,7,8,9,-tetrahydro-5H-tetrazolozepine) was given intraperitoneally in a dosis of 125 mg/kg. The tonic-extensoric spasms on the hind limbs were registered.

[5] = tested on: mice; test: Motility inhibiting activity (Dews equipment); assay type: in vivo; conditions: for ED50: Mus musculus, po, 0.5 h, interruptions of infrared beam within 30 minutes; for Therapeutical index LD50/ED50: motility inhibition, p.o.
Method: The tests were performed according to the method of Borsy et al. [Arch. Int. Pharmacolyn., 124, 1-2 (1960)]. […] Then the test animals were placed in a Dews equipment. In this equipment the number of interruptions of infrared beam within 30 minutes was counted. The percentual deviation from the number of interruptions in the case of the control group was determined in each group, then the ED50 -values and therapeutical indexes were calculated.

[6] = tested on: electroshock provoked by electric current; test: Anticonvulsive activity on mice (inhibition of electroshock); assay type: in vivo; conditions: for ED50: Mus musculus, po
Method: The tests were carried out according to the method of Swinyard et al. [I. Pharmacol. Exp. Ther., 106, 319-330 (1952)] which method is based on the inhibition of electroshock provoked by electric current on mice. The compounds to be tested were administered perorally. One hour later electroshocks were given by using corneal electrodes. The frequency of the electroshocks was 50 Hz, the current intensity 45 mA and the duration 0.4 sec. The full inhibition of the tonic-extensoric spasm on the hind limbs was considered as the criterium of the anticonvulsive activity. As reference compound phenobarbital, trimetadone and traboxopin were used.

[7] = tested on: arrhythmia provoked by aconitine; test: Antiarrhythmic activity on rats (arrhythmia provoked by aconitine); assay type: in vivo; conditions: p.o., 4 mg/kg, 30 minutes prior to aconitine 75 μg/kg i.v.
Method: The antiarrhythmic activity of the novel compounds was examined by influencing the arrhythmia provoked by aconitine on rats weighing 160 to 200 g according to a modified method of Marmo et al. [Arzneim.-Forsch., 20, 12 (1970)]. The animals were anaesthetized by the administration of 1.2 g/kg of ethyl urethane, intraperitoneally. Aconitine was given at a dosage of 75 μg/kg, intravenously. The compounds to be tested were administered perorally 30 minutes prior to the treatment with aconitine. In the test, lidocaine and quinidine was employed for comparison.

[8] = tested on: tetrabenazine ptosis; test: Antagonism of tetrabenazine ptosis on mice; conditions: for ED50: Mus musculus, po; for Therapeutical index LD50/ED50: tetrabenazine ptosis, mice, p.o.
Method: Groups consisting of 10 mice each were treated, perorally, with different doses of the compounds to be tested. The control group was treated only with the corresponding carrier. After 30 minutes, tetrabenazine [3-isobutyl-9,10-dimethoxy-1,2,3,4,6,7-hexahydrobenzo[a]quinolizine-2-one]was administered intraperitoneally at a dosage of 50 mg/kg. The number of animals having closed palpebral fissure was determined in each group after 30, 60, 90 and 120 minutes. Then, the mean value of ptosis was calculated in each group, and the deviation from that of the control group (i.e. the inhibition) was expressed in percentage. From the data obtained, the ED50 -value and the therapeutical index were determined for each novel compound tested as well as for amitryptiline [5-(3-dimethylaminopropylidine)-10,11-dihydro-5H-dibenzo[a,d]cycloheptene hydrochloride] and traboxopin [2-chloro-12(3-dimethylamino-2-methylpropyl)-12H-dibenzo[d,g][1,3,6]dioxazocine] employed for comparison.

[9] = white mice, p.o., 7 days observation, Litchfield and Wilcoxon, read-out: LD50 p.o.
[10] = mice, p.o., 1 h before pentetrazole 125 mg/kg i.p., read-out: ED50
[11] = mice, p.o., 1 h before electroshock (50 Hz, 45 mA, 0.4 sec), full inhibition of tonic-extensoric spasm, read-out: ED50

Row | SMILES | ED50 [2] [mg/kg] | Therapeutical index LD50/ED50 [2] | Therapeutical index LD50/ED50 ([3]; narcosis potentiation) | ED50 [4, 10] [mg/kg] | Therapeutical index LD50/ED50 ([4]; mice, p.o.) | ED50 [5] [mg/kg] | Therapeutical index LD50/ED50 [5] | also measured
1 | CC(C)NCCCN1c2ccccc2OCOc2ccc(Cl)cc21 [Example 2, 2-Chloro-12-(3-isopropylaminopropyl)-12H-dibenzo[d,g][1,3,6]dioxazocine maleate] | 5.2 | 134.6 | – | – | – | – | – | LD50 at 168 h [1, 9]: 700 mg/kg
2 | CNCC(C)CN1c2ccccc2OCOc2ccc(Cl)cc21 (centres unmarked) [Example 3, 2-Chloro-12-(3-methylamino-2-methylpropyl)-12H-dibenzo[d,g][1,3,6]dioxazocine hydrochloride] | 6.4 | 78.1 | 208 | 19 | 26.3 | 27 | 18.50 | ED50 [3]: 2.4 mg/kg; Therapeutical index compared with the known reference compounds ([3]; narcosis potentiation, statement on Table II): several times higher than that of the known reference compounds; LD50 at 168 h [1, 9]: 500 mg/kg
3 | CNCCCN1c2ccccc2OCOc2ccc(Cl)cc21 [Example 4, 2-Chloro-12-(3-methylaminopropyl)-12H-dibenzo[d,g][1,3,6]dioxazocine maleate] | – | – | – | 25 | 28.8 | – | – | ED50 [6]: 40 mg/kg; Therapeutical index LD50/ED50 ([6]; electroshock, mice, p.o.): 19; Therapeutic index compared with that of the reference compounds ([6]; electroshock, mice, statement on Table VII): 3-5 fold; Inhibition in percentage ([7]; maleate): 90.9% and 90%; ED50 [8]: 7.3 mg/kg; Therapeutical index LD50/ED50 [8]: 98.6; LD50 at 168 h [1, 9]: 720 mg/kg
4 | CN(C)CCC=C1c2ccccc2CCc2ccccc21 [amitryptiline, 5-(3-dimethylaminopropylidine)-10,11-dihydro-5H-dibenzo[a,d]cycloheptene hydrochloride] | – | – | – | – | – | – | – | ED50 [8]: 12 mg/kg; Therapeutical index LD50/ED50 [8]: 18.7
5 | CNC1=Nc2ccc(Cl)cc2C(c2ccccc2)=[N+]([O-])C1 [chlordiazepoxide, 7-chloro-2-methylamino-5-phenyl-3H-1,4-benzodiazepine-4-oxide] | – | – | 62.0 | – | – | 60 | 10.3 | ED50 [3]: 10 mg/kg
6 | CCN(CC)CC(=O)Nc1c(C)cccc1C [lidocaine] | – | – | – | – | – | – | – | Inhibition in percentage [7]: 23.4%
7 | CCCC(C)(COC(N)=O)COC(N)=O [meprobamate, 2-methyl-2-propylpropandiol-1,3-dicarbamate] | – | – | 4.2 | – | – | 270 | 4.1 | ED50 [3]: 260 mg/kg
8 | CCC1(c2ccccc2)C(=O)NC(=O)NC1=O [phenobarbital, 5-ethyl-5-phenylbarbituric acid] | – | – | – | – | 8.8 | – | – | ED50 [6]: 24.5 mg/kg; Therapeutical index LD50/ED50 ([6]; electroshock, mice, p.o.): 6.8; ED50 [4]: 19 mg/kg
9 | C=C[C@H]1C[N@@]2CC[C@H]1C[C@@H]2[C@@H](O)c1ccnc2ccc(OC)cc12 [quinidine] | – | – | – | – | – | – | – | Inhibition in percentage [7]: 27.3%
10 | CC(CN(C)C)CN1c2ccccc2OCOc2ccc(Cl)cc21 (centres unmarked) [traboxopin, 2-chloro-12-(3-dimethylamino-2-methylpropyl)-12H-dibenzo[d,g][1,3,6]dioxazocine] | 25 | 10.8 | 10.8 | 32 | 8.4 | 25 | 10.8 | ED50 [6, 11]: 54 mg/kg; Therapeutical index LD50/ED50 ([6]; electroshock, mice, p.o.): 5.0; LD50 at 168 h ([1]; reference compounds, printed in Table II, read-out: LD50): 270 mg/kg
11 | OC(CCN1CCCCC1)(c1ccccc1)C1CCCCC1 (centres unmarked) [trihexyphenidyl] | 15 | 24.3 | – | – | – | – | – | –
12 | CN1C(=O)OC(C)(C)C1=O [trimetadione, 3,5,5-trimethyl-oxazolidine-2,4-dione] | – | – | – | 400 | 5.5 | – | – | ED50 [6, 11]: 490 mg/kg
